# Reference: US20100221315A1, “VESICULAR FORMULATIONS CONTAINING ORGANIC ACID PRODRUGS, PROCESS FOR THEIR PREPARATION” (UNIVERSIDADE DE LISBOA, priority 2006, published 2010)
# Read-outs that look alike come from different tables or passages of the source.
# What was measured:
# [1] = Incorporation efficiency (EE) in liposomes prepared by hydration of a lipid and drugs film; format: physicochemical
# Protocol: Different lipids (20 μmol) and the prodrug (2 μmol) were weighed out, transferred to a round-bottom flask, dissolved in chloroform and the organic solvent evaporated using a rotating evaporator to form a lipid film. This film was then dried in a vacuum bomb for the removal of chloroform residues and 1 ml of isotonic phosphate pH 7.4 buffer (PBS) was added at a temperature at least 10° C. higher than the phase transition temperature (TC) of the lipids used. The mixture was stirred for an additional five minutes to complete hydration of the lipid film and, after a few minutes at rest, it was stirred again for a further five minutes.
# In order to determine the incorporation efficiency (EE), aliquots of the liposomal suspension after hydration and of the liposomal suspension obtained after centrifugation, supernatant removal and re-suspension of the sediment in its original volume (before being centrifuged) were collected. The EEs were calculated as the ratio between the prodrug concentration in the re-suspended liposome suspension and the prodrug concentration in the initial liposome suspension. Tables 2 to 6 show the EE values obtained for several formulations of different prodrugs.
# All the prepared suspensions were checked using an optical phase contrast microscope set at 400× magnification.
# [2] = system: Mycobacterium tuberculosis H37Ra; assay: Determination of the Minimum Inhibitory Concentration (MIC) by successive dilutions; format: cell-based; conditions: for MIC: broth, pH 5.5, about 21 days at 37° C.; for fold lower MIC values than those for PZA and POA: in vitro, pH 5.5
# Protocol: Mycobacterium tuberculosis H37Ra was used as the reference strain. The esters C12, C14 and C16, pyrazinamide (PZA) and pyrazinoic acid (POA) were prepared in stock solutions of dimethyl sulfoxide (DMSO) at a concentration of 8 mg/ml. The Minimum Inhibitory Concentration was determined by the method of successive dilutions. The culture medium Myco (nutrient Broth-Difco, 10 g/L; Middlebrook 7H9-Difco, 10 g/L, 0,05% glucose and 0.01% of Tween 80) supplemented with OADC (Difco) was used and the pH was adjusted to 5.5.
# To each test tube of each stage of the successive dilutions of the test compound, a sufficient volume of bacterial inoculum was added so as to provide a final concentration of 10^4 CFU/ml (CFU=Colony Forming Units). The tubes were incubated for about 21 days at 37° C. The onset of turbidity in the control tube (free of drugs) was checked for on a regular basis. Once turbidity appeared in the control test tube, the results were recorded where the MIC value was defined as the lowest concentration of drug able to inhibit the growth of mycobacteria (note there was a total absence of turbidity in the first test tube of the successive dilution sequence). These tests were performed in triplicate for each test compound. As expected, the MIC for PZA was 100 μg/ml.
# M. tuberculosis H37Ra = assay: Antimycobacterial activity of free and encapsulated compounds in macrophage infected with Mycobacterium tuberculosis; format: cell-based; conditions: infected J774.A1 macrophage
# Protocol: In evaluating the antimycobacterial activity, a conventional method (Anes et al., Nat Cell Biol, 2003) was employed using a cell culture of […] (cell line J774.A1).
# Briefly, the macrophage was plated in a DMEM medium having a high glucose concentration and supplemented with 10% Foetal Bovine Serum, in 24 well tissue culture plates at 37° C. in a 5% carbon dioxide atmosphere. As soon as about 80% confluence was obtained, the cells were infected with M. tuberculosis H37Ra at a rate such that an inoculum concentration of 10^6 mycobacteria/ml per well was obtained.
# After 3 hours of bacterial uptake, 1 to 5 bacillus per infected cell and a total of about 10E4-5 bacteria/ml were expected per well. Washing of the infected cultures with pH 7 buffer PBS was then carried out three times in order to eliminate all bacteria non internalised by the macrophage. Fresh DMEM medium was added with and without the test compound.
# The incubation period was 7 days using fresh medium every 3 days. The compounds were added after 3 hours of internalization and remained in contact with the infected cells until fresh medium DMEM was added.
# After 3 hours, 1 day, 3 days, 5 days and 7 days from the beginning of the infection, intracellular bacteria were recovered for lyses of the infected macrophage with a 1% IGEPAL solution (Sigma) in water. At this concentration, macrophage are lysed with no effect on the viability of the mycobacteria.
# After successive dilutions of the lysate with water, the surviving bacteria were cultured in Middlebrook 7H10 medium supplemented with OADC (Difco). After about 2 weeks of incubation at 37° C. the Unity Forming Colonies (UFCs) were counted. Each test was carried out in triplicate in independent experiments.
# [3] = Incorporation efficiency (EE) in liposomes prepared by hydration of a lipid and prodrugs lyophilisate; format: physicochemical; conditions: hydration of lipids and prodrugs lyophilisate
# Protocol: Solutions were prepared containing 20 μmol of lipids and 2 μmol of prodrug in 10 ml of tert-butanol and were filtered by sterile filtration. These solutions were then frozen in liquid nitrogen and lyophilised for 24 hours.
# After lyophilisation, the solutions were hydrated by the addition of 1 ml of PBS at a temperature of at least 10° C. higher than that of the phase transition temperature (TC) of the lipids, using an ultrasound water bath for two minutes. The incorporation efficiencies (EE) were calculated as described above for the liposome preparation carried out by hydration of a lipid film and are shown in Table 7.
# All the suspensions produced were checked using an optical microscope set at 400× magnification.
# in vitro [4] = format: in vitro ADME; conditions: human, plasma
# Protocol: 750 μl of plasma, 700 μl of PBS and 50 μl of stock solution of the compound (3.6×10^−3M) were added to each one of the test compounds in the free form in a test tube. The tube was incubated at 37° C. under agitation, and 150 μl aliquots were removed every five minutes, diluted with 600 μl of acetonitrile (ACN), and then centrifuged. The supernatant was removed and injected into an HPLC system. The area values obtained for each chromatogram were used to determine the half-life of each prodrug.
# To each liposomal suspension in a test tube, 750 μl of plasma was added and diluted with PBS to a final volume of 3000 μl. The final drug concentration in each tube was 2×10^−3 M. The test tubes were then incubated at 37° C. with agitation and 150 μl aliquots were then removed at set time intervals, diluted with 600 μl of acetonitrile (ACN), and then centrifuged. For the remainder of the process, the same procedure was followed as described above for the free form case.
# in vitro [5] = format: in vitro ADME; conditions: rat, tissue homogenate
# Protocol: For each of the compounds in free form, 50 μl of rat liver homogenate, 1400 μl of PBS and 50 μl of compound stock solution were added (3.6×10^−3 M) in a test tube. The tubes were incubated at 37° C. under agitation, and aliquots of 150 μl were removed every minute, diluted with 600 μl of acetonitrile (ACN), and then centrifuged. The supernatant was removed and placed into the vials of an autosampler and analysed by HPLC.
# To each liposomal suspension in a test tube, 50 μl of homogenate was added and diluted with PBS to a final volume of 1500 μl. The final drug concentration was 2×10^−3 M. The test tubes were incubated at 37° C. under agitation and sample collection and analysis were carried out by the same procedure used for determining the stability of liposomal drugs in plasma.
# [6] = lipid formulation DMPC:DMPG (9:1)
# [7] = Mycobacterium tuberculosis, H37RA, 504 h, pH 5.5, M. tuberculosis H37Ra, read-out: MIC
# [8] = pH 7.4, Half-life (min) Free form
# [9] = pH 7.4, Half-life (min) Vesicular form (DMPC)
Structure (SMILES),EE (%) incorporation efficiency ([1]; lipid formulation DMPC),EE (%) incorporation efficiency ([1]; lipid formulation DPPC),"MIC [2, 7]",intracellular bacterial growth after 7 days of infection (M. tuberculosis H37Ra),EE (%) incorporation efficiency ([3]; lipid formulation DMPC),half-life (in vitro [4]; [8]),half-life (in vitro [4]; [9]),half-life (in vitro [5]; [8]),half-life (in vitro [5]; [9]),further results
"CCCCCCCCCCOC(=O)c1ccccc1 [BD, decyl benzoate]",94.1%,93.4%,–,–,–,–,–,–,–,–
"CCCCCCCCCCCCCCNC(=O)c1cnccn1 [Compound A14, N-tetradecyl pyrazinamide]",95.2%,96.4%,–,–,–,–,–,–,–,"EE (%) incorporation efficiency [1, 6]: 98.6%"
"NC(=O)c1cnccn1 [PZA, pyrazinamide, reference compound]",–,–,100 µg/mL,bacteria recovered their ability of intracellular growth,–,–,–,–,–,MIC ([2]; M. tuberculosis H37Ra): 100 to 200 µg/mL
"CCCCCCCCCCCCCCOC(=O)c1cnccn1 [Compound C14, tetradecyl pyrazinoate]",–,–,10 to 20 µg/mL,–,98.2%,0.317 h,2.63 h,0.0667 h,2.82 h,EE (%) incorporation efficiency ([3]; lipid formulation DPPC): 97.4%; fold lower MIC values than those for PZA and POA [2]: 10 fold
"CCCCCCCCCCCCOC(=O)c1cnccn1 [Compound C12, dodecyl pyrazinoate]",94.7%,93.1%,20 to 40 µg/mL,latency was observed,95.6%,0.25 h,1.3 h,0.0333 h,0.9 h,"fold lower MIC values than those for PZA and POA [2]: 10 fold; difference in bactericidal effect between DPPC and DMPC formulations (M. tuberculosis H37Ra; liposomal forms): no such significant differences; increase of bactericidal effect by encapsulation in liposomes relatively to free form (M. tuberculosis H37Ra; FIG. 1B): about 50%; bactericidal effect, comparison of compounds (M. tuberculosis H37Ra; free or vesicular form, FIG. 2A, 2B): greatest bactericidal effect; EE (%) incorporation efficiency ([1]; lipid formulation DMPC:DMPG (7:3)): 82.7%; EE (%) incorporation efficiency [1, 6]: 87.0%; EE (%) incorporation efficiency ([1]; lipid formulation DPPC:DPPG (7:3)): 90.2%; EE (%) incorporation efficiency ([1]; lipid formulation DPPC:DPPG (9:1)): 87.2%"
"CCCCCCCCCCCCCCCCOC(=O)c1cnccn1 [Compound C16, hexadecyl pyrazinoate]",–,–,20 to 40 µg/mL,–,97.3%,1.13 h,3.57 h,0.35 h,12.8 h,–
"CCCCCCCCCCCCCCCCNC(=O)c1cnccn1 [Compound A16, hexadecyl pyrazinamide]",97.0%,–,–,–,–,–,–,–,–,EE (%) incorporation efficiency ([1]; lipid formulation DMPG:DMPG 9:1): 98.4%; EE (%) incorporation efficiency ([1]; lipid formulation DPPM): 98.1%
"O=C(O)c1cnccn1 [POA, pyrazinoic acid, reference compound]",–,–,100 to 200 µg/mL,bacteria recovered their ability of intracellular growth,–,–,–,–,–,–
"CCCCCCCCOC(=O)C=Cc1ccccc1 [CO, octyl cinnamate]",92.2%,94.5%,–,–,–,–,–,–,–,–
